{"source": "paper PMC11141866", "about": "“Pyrimidine depletion enhances targeted and immune therapy combinations in acute myeloid leukemia” (JCI Insight, 2024)", "key": {"[1]": {"tested_on": "primary AML patient samples", "test": "Flow cytometry CD47 surface expression, primary AML samples", "type": "cell-based, human", "details": "500nM", "procedure": "(§1) Cells were thawed in 50% FBS RPMI and then cultured in StemSpan (StemCell Technologies) media supplemented with human FLT3L, SCF, GM-CSF, G-CSF, IL-3, IL-6, TPO, and EPO cytokines for 7 days (LTC).\n(§2) After 72 hours or 7 days of treatment of DHODHi, cells were collected and washed with PBS, blocked with human Fc block (BioLegend), and stained with antibodies for 30 minutes on ice. Antibodies were washed off and cells resuspended in FACS buffer (2% FBS, 2 mM NaN3, Dulbecco’s PBS) for analysis using BD LSRFortessa or Cytek Aurora spectral flow cytometer. Live/dead exclusion was done using LIVE/DEAD Fixable Near-IR (Invitrogen). All antibodies were purchased from BioLegend except CD47, which was purchased from BD Biosciences: CD11b clone M1/70, CD38 clone HIT2, CD14 clone M5E2, CD47 clone B6H12, CD33 clone WM53, CD3 clone UCHT1, CD19 clone HIB19, and CD45 clone HI30.\nSupplemental Figure S.8. DHODHi modulates CD47 surface antigen expression. A) Representative flow cytometry overlay histogram plot for CD47 surface expression in MV4-11 cell line following a 72- […]\nsupplementation (experiment was done five independent times). B) Flow cytometry analysis of CD47 surface expression in primary AML patient samples (n=8-10) treated in vitro for seven days (long term culture, LTC). Data is shown as mean florescent intensity (MFI) of CD47 gated on live CD45+CD3-CD19- cells, error bars indicate mean with 95% confidence interval. C) Representative flow cytometry […]\nmodulation of CD47 post DHODHi treatment.\n(1 picture or pasted object on this page, not shown here)"}, "MOLM-13": {"tested_on": "MOLM-13", "test": "MTS proliferation assay, MOLM-13", "type": "cell-based", "details": "Homo sapiens, MOLM-13, 96 h, read-out: IC50 (MTS proliferation)", "procedure": "(§3) A total of 10,000–20,000 cells from different AML lines or 50,000–75,000 cells of primary AML blasts were treated in a 96-well plate for 72 hours or 96 hours at 37°C, 5% CO2. CellTiter 96 Aqueous MTS reagent (Promega) was added to cells followed by a 3-hour incubation at 37°C, 5% CO2. The absorbance was measured at 490 nm using DTX 880 plate reader, and the IC50 was calculated using GraphPad Prism."}, "primary AML samples": {"tested_on": "primary AML samples", "test": "Flow cytometry CD38 surface expression, primary AML samples", "type": "cell-based, human", "details": "500nM", "procedure": "as §1, §2"}, "Kasumi": {"tested_on": "Kasumi", "test": "MTS proliferation assay, Kasumi", "type": "cell-based", "details": "Homo sapiens, 96 h, read-out: IC50 (MTS proliferation)", "procedure": "as §3"}, "[2]": {"tested_on": "primary AML patient samples", "test": "Flow cytometry viability, primary AML long-term culture", "type": "cell-based, human", "details": "500nM", "procedure": "as §1, §2\nSupplemental Figure S.2. […] A).\nFlow cytometry analysis of viable primary AML patient samples (n=10) treated in vitro for seven days\n(long term culture, LTC). […]"}, "OCI-AML3": {"tested_on": "OCI-AML3", "test": "MTS proliferation assay, OCI-AML3", "type": "cell-based", "details": "Homo sapiens, OCI-AML-3, 96 h, read-out: IC50 (MTS proliferation)", "procedure": "as §3"}, "U937": {"tested_on": "U937", "test": "MTS proliferation assay, U937", "type": "cell-based", "details": "Homo sapiens, U-937, 96 h, read-out: IC50 (MTS proliferation)", "procedure": "as §3"}, "THP1": {"tested_on": "THP1", "test": "MTS proliferation assay, THP1", "type": "cell-based", "details": "Homo sapiens, THP-1, 96 h, read-out: IC50 (MTS proliferation)", "procedure": "as §3"}, "[3]": {"tested_on": "HL-60 disseminated CDX model", "test": "HL-60 CDX synergy with decitabine", "type": "in vivo, NCG mice", "details": "Decitabine 0.4 mpk IP (4on/10off), HOSU53 10 mpk p.o. qd, or both; flag 0 = censored at day 82", "procedure": "Female 8- to 12-week-old female NCG mice were engrafted with 1 × 10^7 cells via tail vein i.v. injection. At 14 days after engraftment (day 1 of treatment), mice (n = 10/arm) were randomized to receive p.o. qd and i.p. vehicle (p.o. qd 40% HPβCD and 4 on/10 off i.p. PBS), 10 mg/kg HOSU-53, i.p. 0.4 mg/kg decitabine on a 4-day on/10-day off cycle, or their combination till moribundity or end of study day 82."}}, "note": "Where “and” joins values, the source holds several entries; their conditions need not be identical. Equal values may be shown once."}
{"smiles": "Cc1c(-c2ccc(-c3ccccc3F)cc2)nc2ccc(F)cc2c1C(=O)O", "note": "[BRQ, brequinar]", "values": [{"measurement": "CD47 MFI", "setting": "[1]; Pt.13, DMSO 1665.27", "value": 1311.31}, {"measurement": "CD47 MFI", "setting": "[1]; Pt.14, DMSO 585.79", "value": 845.1}, {"measurement": "CD47 MFI", "setting": "[1]; Pt.15, DMSO 1002.16", "value": 847.29}, {"measurement": "CD47 MFI", "setting": "[1]; Pt.16, DMSO 1349.33", "value": 1999.15}, {"measurement": "CD47 MFI", "setting": "[1]; Pt.17, DMSO 334.61", "value": 370.44}, {"measurement": "CD47 MFI", "setting": "[1]; Pt.18, DMSO 869.17", "value": 1024.38}, {"measurement": "CD47 MFI", "setting": "[1]; Pt.19, DMSO 364.4", "value": 470.75}, {"measurement": "CD47 MFI", "setting": "[1]; Pt.20, DMSO 398.54", "value": 499.32}, {"measurement": "IC50", "setting": "MOLM-13", "value": 378, "unit": "nM"}, {"measurement": "CD38 MFI", "setting": "primary AML samples; Pt.13, DMSO 803.93", "value": 685.5}, {"measurement": "CD38 MFI", "setting": "primary AML samples; Pt.14, DMSO 15.61", "value": 20.07}, {"measurement": "CD38 MFI", "setting": "primary AML samples; Pt.15, DMSO 168", "value": 776.17}, {"measurement": "CD38 MFI", "setting": "primary AML samples; Pt.16, DMSO 274.9", "value": 196.87}, {"measurement": "CD38 MFI", "setting": "primary AML samples; Pt.17, DMSO 1637.55", "value": 2098.18}, {"measurement": "CD38 MFI", "setting": "primary AML samples; Pt.18, DMSO 74.26", "value": 85.41}, {"measurement": "CD38 MFI", "setting": "primary AML samples; Pt.19, DMSO 997.1", "value": 1760}, {"measurement": "CD38 MFI", "setting": "primary AML samples; Pt.20, DMSO 193.57", "value": 223.42}, {"measurement": "IC50", "setting": "Kasumi", "value": 1180, "unit": "nM"}, {"measurement": "% Live (Near-IR negative)", "setting": "[2]; Pt.13, DMSO 72.92", "value": 74.35, "unit": "%"}, {"measurement": "% Live (Near-IR negative)", "setting": "[2]; Pt.14, DMSO 68.39", "value": 69.22, "unit": "%"}, {"measurement": "% Live (Near-IR negative)", "setting": "[2]; Pt.15, DMSO 61.7", "value": 34.7, "unit": "%"}, {"measurement": "% Live (Near-IR negative)", "setting": "[2]; Pt.16, DMSO 45.99", "value": 44.41, "unit": "%"}, {"measurement": "% Live (Near-IR negative)", "setting": "[2]; Pt.17, DMSO 29.84", "value": 27.99, "unit": "%"}, {"measurement": "% Live (Near-IR negative)", "setting": "[2]; Pt.18, DMSO 29.72", "value": 24.94, "unit": "%"}, {"measurement": "% Live (Near-IR negative)", "setting": "[2]; Pt.19, DMSO 75.66", "value": 72.29, "unit": "%"}, {"measurement": "% Live (Near-IR negative)", "setting": "[2]; Pt.20, DMSO 67.67", "value": 44.18, "unit": "%"}, {"measurement": "IC50", "setting": "OCI-AML3", "value": 483, "unit": "nM"}, {"measurement": "IC50", "setting": "U937", "value": 2000, "unit": "nM"}, {"measurement": "IC50", "setting": "THP1", "value": 899, "unit": "nM"}]}
{"smiles": "Nc1ncn([C@H]2C[C@H](O)[C@@H](CO)O2)c(=O)n1", "note": "[Decitabine, decitabine, reference compound]", "values": [{"measurement": "Survival, day of study at event (per animal)", "setting": "[3]", "value": "40 days and 41 days and 43 days and 45 days and 47 days"}]}
